{"source": "paper PMC7669869", "about": "“AdipoR1/AdipoR2 dual agonist recovers nonalcoholic steatohepatitis and related fibrosis via endoplasmic reticulum-mitochondria axis” (Nature Communications, 2020)", "key": {"[1]": {"test_system": "gene expression in LX2 cells", "assay": "Quantitative RT-PCR in LX2 cells", "format": "cell-based, human", "set-up": "key to Vimentin mRNA / CTGF mRNA / OPN mRNA / IL-6 mRNA / TNF mRNA / IL-1 mRNA / TIMP2 mRNA / MMP2 mRNA / MMP9 mRNA / MMP12 mRNA / MMP13 mRNA: relative mRNA expression normalized to β-actin", "experimental": "(§1) Hepatoma carcinoma cell line HepG2 and human hepatic activated stellate cell line LX2 used in this study were purchased from Type Culture Collection of the Chinese Academy of Sciences (Shanghai, China). Cells were cultured in Dulbecco’s modified Eagle’s medium (DMEM) with 10% fetal bovine serum (FBS), supplemented with 1% penicillin–streptomycin (ThermoFisher Scientific, USA) at 37 °C in a humidified atmosphere of 5% CO2. In PA (Sigma, USA) induced lipid accumulation cell model, HepG2 cells were seeded into a 6-well plate at 5E5 cells per well. 0.25 mM PA and/or 200 μM candidate peptides were co-incubated with cells for 24 h. Then Oil Red O staining was performed to evaluate the accumulation of lipid droplets. BSA (Sigma, USA) was used in this experiment as the negative control. For LX2 cells, 2E5 cells were seeded, then the adherent cells were exposed to 200 μM candidate peptides for another 48 h. Next, the cell protein was obtained and western blotting was performed. Candidate peptides were diluted in DMEM in a stock concentration of 1 M.\n(§2) Liver total RNA was extracted by using Trizol reagent following the manufacture’s instruction (TransGen Biotech, China). The concentration of RNA was measured by Nanodrop 2000 (ThermoFisher Scientific, USA). cDNA was transcribed from 10ug total RNA with First Strand cDNA synthesis Super Mix (TransGen Biotech, China). The cDNA was diluted 1/50 and 1.0 uL were used as a template for qPCR. qPCR was performed with SYBR Green qPCR Super Mix (TransGen Biotech, China) in the Light Cycler 480 Real-Time PCR System (Roche, Swiss). Reference gene β-actin was used for data normalization. mRNA expression was analyzed with specific primers listed in Supplementary Table 2."}, "[2]": {"test_system": "gene expression in PA induced HepG2 cells", "assay": "Quantitative RT-PCR in PA induced HepG2 cells", "format": "cell-based, human", "settings": "for IL-1a mRNA, relative expression, Supplementary Figure 11a / IL-6 mRNA, relative expression, Supplementary Figure 11a / IL-8 mRNA, relative expression, Supplementary Figure 11a / TNFa mRNA, relative expression, Supplementary Figure 11a: PA induced HepG2 cells, PA+JT003", "experimental": "as §1, §2"}, "[3]": {"test_system": "CCl4 induced liver fibrosis mice", "assay": "CCl4 mice: apoptosis assay (TUNEL)", "format": "in vivo, mouse", "set-up": "unit not given here", "settings": "CCl4 + JT003 mice", "experimental": "Male mice liver fibrosis was induced by intraperitoneal injection of 20% CCl4 (Sigma, USA) diluted in corn oil (Aladdin, China) every 3 days for 6 weeks (n = 6; 5 ml kg^−1 body weight). Mice injected with equivalent volume of corn oil serves as control group (n = 6). Liver fibrosis mice treated with JT003 for 3 weeks were used to evaluated the pharmacological effects (n = 6; 500 μg kg^−1; daily intraperitoneal injection).\nTUNEL assay was performed using 5 μm liver sections and the apoptotic cells were identified using a Cell Death Detection kit (Beyotime Biotechnology, Shanghai, China). And then the slices were counterstained with DAPI (Life science, ThermoFisher Scientific, USA). Six random fields from 6 slides per mice were examined, and the TUNEL-positive red area within the slides were counted by two individuals who were blinded to the treatment."}, "[4]": {"settings": "Figure 6a left, LX2 cells, JT003 vs Vehicle, single replicates, n = 4"}, "[5]": {"settings": "Figure 6a right, LX2 cells, JT003 vs Vehicle, single replicates, n = 4"}}, "note": "Values joined by “and” are separate entries in the source; they are usually repeats but may differ in a detail not shown here. Identical values can stand only once. Non-standard residues stand in square brackets, D forms with d. Residues, ends and D or L forms follow the SMILES beside them. Nva = CCC[C@H](N)C(=O)O"}
{"smiles": "CCC[C@H](NC(=O)[C@@H]1CCCN1)C(=O)N[C@@H](CC(C)C)C(=O)N[C@@H](Cc1ccc(O)cc1)C(=O)N[C@@H](Cc1ccc(O)cc1)C(=O)N[C@@H](Cc1ccccc1)C(=O)N[C@@H](C)C(N)=O", "note": "[JT003] (H-P[Nva]LYYFA-NH2)", "values": [{"measurement": "MMP2 mRNA", "setting": "[1]; [4]", "value": "1.293 and 0.7704 and 1.1819 and 1.0719"}, {"measurement": "MMP9 mRNA", "setting": "[1]; [4]", "value": "2.131 and 1.538 and 2.384 and 1.884"}, {"measurement": "MMP12 mRNA", "setting": "[1]; [4]", "value": "1.826 and 1.7 and 2.413 and 1.763"}, {"measurement": "MMP13 mRNA", "setting": "[1]; [4]", "value": "2.514 and 2.381 and 3.247 and 2.347"}, {"measurement": "TIMP2 mRNA", "setting": "[1]; [4]", "value": "0.8037 and 0.8728 and 0.6883 and 0.7883"}, {"measurement": "CTGF mRNA", "setting": "[1]; [5]", "value": "0.7417 and 0.5541 and 0.6479 and 0.621"}, {"measurement": "IL-1 mRNA", "setting": "[1]; [5]", "value": "0.9119 and 0.6477 and 0.5242 and 0.686"}, {"measurement": "IL-6 mRNA", "setting": "[1]; [5]", "value": "0.6335 and 0.6954 and 0.6645 and 0.66"}, {"measurement": "OPN mRNA", "setting": "[1]; [5]", "value": "0.8619 and 0.7815 and 0.9867 and 0.8941"}, {"measurement": "TNF mRNA", "setting": "[1]; [5]", "value": "0.6949 and 0.8263 and 0.7906 and 0.7334"}, {"measurement": "Vimentin mRNA", "setting": "[1]; [5]", "value": "0.6199 and 0.6972 and 0.6586 and 0.5779"}, {"measurement": "IL-1a mRNA, relative expression, Supplementary Figure 15a", "setting": "[1]; JT003 vs Vehicle, replicate 1", "value": 0.9119}, {"measurement": "IL-6 mRNA, relative expression, Supplementary Figure 15a", "setting": "[1]; JT003 vs Vehicle, replicate 1", "value": 1.034}, {"measurement": "TNFa mRNA, relative expression, Supplementary Figure 15a", "setting": "[1]; JT003 vs Vehicle, replicate 1", "value": 0.6949}, {"measurement": "iNOS mRNA, relative expression, Supplementary Figure 15a", "setting": "[1]; JT003 vs Vehicle, replicate 1", "value": 1.242}, {"measurement": "IL-1a mRNA, relative expression, Supplementary Figure 15a", "setting": "[1]; JT003 vs Vehicle, replicate 2", "value": 0.5774}, {"measurement": "IL-6 mRNA, relative expression, Supplementary Figure 15a", "setting": "[1]; JT003 vs Vehicle, replicate 2", "value": 0.932}, {"measurement": "TNFa mRNA, relative expression, Supplementary Figure 15a", "setting": "[1]; JT003 vs Vehicle, replicate 2", "value": 0.8263}, {"measurement": "iNOS mRNA, relative expression, Supplementary Figure 15a", "setting": "[1]; JT003 vs Vehicle, replicate 2", "value": 1.188}, {"measurement": "IL-1a mRNA, relative expression, Supplementary Figure 15a", "setting": "[1]; JT003 vs Vehicle, replicate 3", "value": 0.5946}, {"measurement": "IL-6 mRNA, relative expression, Supplementary Figure 15a", "setting": "[1]; JT003 vs Vehicle, replicate 3", "value": 0.9828}, {"measurement": "TNFa mRNA, relative expression, Supplementary Figure 15a", "setting": "[1]; JT003 vs Vehicle, replicate 3", "value": 0.7606}, {"measurement": "iNOS mRNA, relative expression, Supplementary Figure 15a", "setting": "[1]; JT003 vs Vehicle, replicate 3", "value": 0.8438}, {"measurement": "IL-1a mRNA, relative expression, Supplementary Figure 15a", "setting": "[1]; JT003 vs Vehicle, replicate 4", "value": 0.706}, {"measurement": "IL-6 mRNA, relative expression, Supplementary Figure 15a", "setting": "[1]; JT003 vs Vehicle, replicate 4", "value": 0.9774}, {"measurement": "TNFa mRNA, relative expression, Supplementary Figure 15a", "setting": "[1]; JT003 vs Vehicle, replicate 4", "value": 0.7834}, {"measurement": "iNOS mRNA, relative expression, Supplementary Figure 15a", "setting": "[1]; JT003 vs Vehicle, replicate 4", "value": 0.9516}, {"measurement": "HSC activation factors (Vimentin, CTGF, OPN, IL-6, TNFα and IL-1α)", "setting": "[1]; LX2, 200 μM JT003, in words", "value": "significantly suppressed"}, {"measurement": "expression of ER-mitochondrial function-related markers", "setting": "[1]; LX2, 200 μM JT003, in words", "value": "improved"}, {"measurement": "expression of genes involved in ECM accumulation (TIMP1) and degradation (MMP9, MMP12, MMP13)", "setting": "[1]; LX2, 200 μM JT003, in words", "value": "notably altered"}, {"measurement": "inflammation related genes (TNFα, IL-1α, IL-6 and iNOS)", "setting": "[1]; LX2, 200 μM JT003, in words", "value": "suppressed"}, {"measurement": "lipogenesis (FAS, SREBP-1C, SREBP-2 and ACC1) and fatty acid β-oxidation (ACOX, LCAD and PDK4) genes", "setting": "[2]; HepG2, 0.25 mM PA + 200 μM JT003, in words", "value": "meliorated notably"}, {"measurement": "inflammatory factors and ER-mitochondrial axis dysfunction (mRNA)", "setting": "[2]; PA induced HepG2, 200 μM JT003, in words", "value": "meliorated notably"}, {"measurement": "IL-1a mRNA, relative expression, Supplementary Figure 11a", "setting": "[2]; replicate 1", "value": 1.056}, {"measurement": "IL-6 mRNA, relative expression, Supplementary Figure 11a", "setting": "[2]; replicate 1", "value": 0.3197}, {"measurement": "IL-8 mRNA, relative expression, Supplementary Figure 11a", "setting": "[2]; replicate 1", "value": 0.8479}, {"measurement": "TNFa mRNA, relative expression, Supplementary Figure 11a", "setting": "[2]; replicate 1", "value": 0.6008}, {"measurement": "IL-1a mRNA, relative expression, Supplementary Figure 11a", "setting": "[2]; replicate 2", "value": 0.8256}, {"measurement": "IL-6 mRNA, relative expression, Supplementary Figure 11a", "setting": "[2]; replicate 2", "value": 0.3197}, {"measurement": "IL-8 mRNA, relative expression, Supplementary Figure 11a", "setting": "[2]; replicate 2", "value": 0.8134}, {"measurement": "TNFa mRNA, relative expression, Supplementary Figure 11a", "setting": "[2]; replicate 2", "value": 0.8039}, {"measurement": "IL-1a mRNA, relative expression, Supplementary Figure 11a", "setting": "[2]; replicate 3", "value": 0.9853}, {"measurement": "IL-6 mRNA, relative expression, Supplementary Figure 11a", "setting": "[2]; replicate 3", "value": 0.4368}, {"measurement": "IL-8 mRNA, relative expression, Supplementary Figure 11a", "setting": "[2]; replicate 3", "value": 0.8277}, {"measurement": "TNFa mRNA, relative expression, Supplementary Figure 11a", "setting": "[2]; replicate 3", "value": 0.7928}, {"measurement": "IL-1a mRNA, relative expression, Supplementary Figure 11a", "setting": "[2]; replicate 4", "value": 0.9145}, {"measurement": "IL-6 mRNA, relative expression, Supplementary Figure 11a", "setting": "[2]; replicate 4", "value": 0.3522}, {"measurement": "IL-8 mRNA, relative expression, Supplementary Figure 11a", "setting": "[2]; replicate 4", "value": 0.8368}, {"measurement": "TNFa mRNA, relative expression, Supplementary Figure 11a", "setting": "[2]; replicate 4", "value": 0.7583}, {"measurement": "TUNEL, Supplementary Figure 16", "setting": "[3]; replicate 1", "value": 0.177}, {"measurement": "TUNEL, Supplementary Figure 16", "setting": "[3]; replicate 2", "value": 0.215}, {"measurement": "TUNEL, Supplementary Figure 16", "setting": "[3]; replicate 3", "value": 0.261}, {"measurement": "TUNEL, Supplementary Figure 16", "setting": "[3]; replicate 4", "value": 0.303}, {"measurement": "TUNEL, Supplementary Figure 16", "setting": "[3]; replicate 5", "value": 0.387}, {"measurement": "TUNEL, Supplementary Figure 16", "setting": "[3]; replicate 6", "value": 0.3}, {"measurement": "TUNEL, Supplementary Figure 16", "setting": "[3]; replicate 7", "value": 0.353}, {"measurement": "TUNEL, Supplementary Figure 16", "setting": "[3]; replicate 8", "value": 0.189}, {"measurement": "TUNEL, Supplementary Figure 16", "setting": "[3]; replicate 9", "value": 0.125}, {"measurement": "TUNEL, Supplementary Figure 16", "setting": "[3]; replicate 10", "value": 0.252}]}
